# Reference: patent publication US8993752B2, “Neprilysin inhibitors” (Theravance Biopharma R&D IP, LLC, priority 2011, dated 2015)
# Molecular target: T1, human NEP (Homo sapiens, UniProt P08473)
# T1 construct: purchased R&D Systems, Minneapolis, Minn; 1182-ZN
# Assay: In vitro enzyme inhibition assay at human NEP (fluorogenic peptide substrate)
# Assay type: biochemical
# Details: recombinant human NEP; substrate Mca-D-Arg-Arg-Leu-Dap-(Dnp)-OH 10 μM; 37° C.; values given as ranges
# Procedure: The inhibitory activities of compounds at human and rat neprilysin (EC 3.4.24.11; NEP) and human angiotensin converting enzyme (ACE) were determined using in vitro assays as described below.
# Recombinant human NEP and recombinant human ACE were obtained commercially (R&D Systems, Minneapolis, Minn., catalog numbers 1182-ZN and 929-ZN, respectively). The fluorogenic peptide substrate Mca-D-Arg-Arg-Leu-Dap-(Dnp)-OH (Medeiros et al. (1997) Braz. J. Med. Biol. Res. 30:1157-62; Anaspec, San Jose, Calif.) and Abz-Phe-Arg-Lys(Dnp)-Pro-OH (Araujo et al. (2000) Biochemistry 39:8519-8525; Bachem, Torrance, Calif.) were used in the NEP and ACE assays respectively.
# The assays were performed in 384-well white opaque plates at 37° C. using the fluorogenic peptide substrates at a concentration of 10 μM in Assay Buffer (NEP: 50 mM HEPES, pH 7.5, 100 mM NaCl, 0.01% polyethylene glycol sorbitan monolaurate (Tween-20), 10 μM ZnSO4; ACE: 50 mM HEPES, pH 7.5, 100 mM NaCl, 0.01% Tween-20, 1 μM ZnSO4).
# Test compounds were assayed over the range of concentrations from 10 μM to 20 pM. Test compounds were added to the enzymes and incubated for 30 minute at 37° C. prior to initiating the reaction by the addition of substrate. Reactions were terminated after 20 minutes of incubation at 37° C. by the addition of glacial acetic acid to a final concentration of 3.6% (v/v).
# Plates were read on a fluorometer with excitation and emission wavelengths set to 320 nm and 405 nm, respectively Inhibition constants were obtained by nonlinear regression of the data using the equation (GraphPad Software, Inc., San Diego, Calif.): v=v0/[1+(I/K′)] where v is the reaction rate, v0 is the uninhibited reaction rate, I is the inhibitor concentration and K′ is the apparent inhibition constant.
# Compounds of the invention were tested in this assay and found to have pKi values at human NEP as follows.
# T1 sequence (P08473 whole entry): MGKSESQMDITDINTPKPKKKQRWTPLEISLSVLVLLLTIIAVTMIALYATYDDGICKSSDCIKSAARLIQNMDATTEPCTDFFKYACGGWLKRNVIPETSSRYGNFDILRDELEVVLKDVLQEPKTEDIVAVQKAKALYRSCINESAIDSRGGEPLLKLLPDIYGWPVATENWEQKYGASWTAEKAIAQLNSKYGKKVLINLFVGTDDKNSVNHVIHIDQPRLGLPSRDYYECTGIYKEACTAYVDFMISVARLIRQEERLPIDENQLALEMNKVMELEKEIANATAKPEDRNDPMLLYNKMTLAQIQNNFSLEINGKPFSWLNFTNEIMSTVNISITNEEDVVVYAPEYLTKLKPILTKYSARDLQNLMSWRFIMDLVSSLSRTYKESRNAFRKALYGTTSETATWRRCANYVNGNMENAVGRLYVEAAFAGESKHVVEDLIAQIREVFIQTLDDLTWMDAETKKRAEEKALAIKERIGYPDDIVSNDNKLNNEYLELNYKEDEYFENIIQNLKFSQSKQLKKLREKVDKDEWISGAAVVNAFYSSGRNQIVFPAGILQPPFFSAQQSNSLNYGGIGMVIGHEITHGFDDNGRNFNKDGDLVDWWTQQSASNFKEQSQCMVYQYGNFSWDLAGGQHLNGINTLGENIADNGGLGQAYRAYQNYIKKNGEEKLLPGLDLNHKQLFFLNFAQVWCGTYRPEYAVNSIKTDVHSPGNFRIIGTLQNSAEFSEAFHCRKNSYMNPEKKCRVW
row,Compound,pKi values at human NEP
1,COCCN(C)C(=O)c1cc(C(=O)N[C@H](Cc2ccccc2C(F)(F)F)[C@@H](O)C(=O)O)n[nH]1 [Example 6-9],7.0-7.9

# Same assay, conditions: recombinant human NEP; substrate Mca-D-Arg-Arg-Leu-Dap-(Dnp)-OH 10 μM; 37° C.; values given as ranges; read-out: pKi values at human NEP (converted)
row,Ki [µM],Compound
1,≤ 0.001,"CCCCc1cc(C(=O)N[C@H](Cc2ccccc2Cl)[C@@H](O)C(=O)O)nn1Cc1c(F)c(F)c(OC)c(F)c1F [Example 2-69, (2R,3R)-3-{[5-Butyl-1-(2,3,5,6-tetrafluoro-4-methoxy-benzyl)-1H-pyrazole-3-carbonyl]-amino}-4-(2-chloro-phenyl)-2-hydroxy-butyric acid]"
2,0.00126 to 0.01,"COc1ccc(Cn2nc(C(=O)N[C@H](Cc3ccccc3Cl)[C@@H](O)C(=O)O)cc2C(C)=O)cc1 [Example 2-70, (2R,3R)-3-{[5-Acetyl-1-(4-methoxy-benzyl)-1H-pyrazole-3-carbonyl]-amino}-4-(2-chloro-phenyl)-2-hydroxy-butyric acid]"
3,≤ 0.001,"COc1c(F)c(F)c(Cn2nc(C(=O)N[C@H](Cc3ccccc3Cl)[C@@H](O)C(=O)O)cc2C(C)=O)c(F)c1F [Example 2-71, (2R,3R)-3-{[5-Acetyl-1-(2,3,5,6-tetrafluoro-4-methoxy-benzyl)-1H-pyrazole-3-carbonyl]-amino}-4-(2-chloro-phenyl)-2-hydroxy-butyric acid]"
4,0.0126 to 0.1,"CN(C)C(=O)c1cc(C(=O)N[C@H](Cc2ccccc2Cl)[C@@H](O)C(=O)O)nn1Cc1ccc(F)cc1 [Example 2-72, (2R,3R)-4-(2-Chloro-phenyl)-3-{[5-dimethylcarbamoyl-1-(4-fluoro-benzyl)-1H-pyrazole-3-carbonyl]-amino}-2-hydroxy-butyric acid]"
5,0.0126 to 0.1,"COc1ccc(Cn2nc(C(=O)N[C@H](Cc3ccccc3Cl)[C@@H](O)C(=O)O)cc2C(=O)N(C)C)cc1 [Example 2-73, (2R,3R)-4-(2-Chloro-phenyl)-3-{[5-dimethylcarbamoyl-1-(4-methoxy-benzyl)-1H-pyrazole-3-carbonyl]-amino}-2-hydroxy-butyric acid]"
6,0.0126 to 0.1,"O=C(O)Cn1nc(C(=O)N[C@H](Cc2ccccc2Cl)[C@@H](O)C(=O)O)cc1-c1ccc(Cl)cc1Cl [Example 2-74, (2R,3R)-3-{[1-Carboxymethyl-5-(2,4-dichlorophenyl)-1H-pyrazole-3-carbonyl]-amino}-4-(2-chloro-phenyl)-2-hydroxy-butyric acid]"
7,0.0126 to 0.1,"CCCCc1cc(C(=O)N[C@H](Cc2ccccc2Cl)[C@@H](O)C(=O)O)[nH]n1 [Example 3-1, (2R,3R)-3-[(5-Butyl-2H-pyrazole-3-carbonyl)-amino]-4-(2-chloro-phenyl)-2-hydroxy-butyric acid]"
8,0.0126 to 0.1,"O=C(N[C@H](Cc1ccccc1Cl)[C@@H](O)C(=O)O)c1cc(-c2ccccc2C(F)(F)F)n[nH]1 [Example 3-2, (2R,3R)-4-(2-Chloro-phenyl)-2-hydroxy-3-{[5-(2-trifluoromethyl-phenyl)-2H-pyrazole-3-carbonyl]-amino}-butyric acid]"
9,0.0126 to 0.1,"O=C(N[C@H](Cc1ccccc1Cl)[C@@H](O)C(=O)O)c1cc(-c2ccc(F)cc2)n[nH]1 [Example 3-3, (2R,3R)-4-(2-Chloro-phenyl)-3-{[5-(4-fluoro-phenyl)-2H-pyrazole-3-carbonyl]-amino}-2-hydroxy-butyric acid]"
10,0.0126 to 0.1,"COc1ccccc1-c1cc(C(=O)N[C@H](Cc2ccccc2Cl)[C@@H](O)C(=O)O)[nH]n1 [Example 3-4, (2R,3R)-4-(2-Chloro-phenyl)-2-hydroxy-3-{[5-(2-methoxy-phenyl)-2H-pyrazole-3-carbonyl]-amino}-butyric acid]"
11,0.0126 to 0.1,"CC(=O)c1cc(C(=O)N[C@H](Cc2ccccc2Cl)[C@@H](O)C(=O)O)[nH]n1 [Example 3-5, (2R,3R)-3-[(5-Acetyl-2H-pyrazole-3-carbonyl)-amino]-4-(2-chloro-phenyl)-2-hydroxy-butyric acid]"
12,≤ 0.001,"COc1c(F)c(F)c(Cn2nc(C(C)=O)cc2C(=O)N[C@H](Cc2ccccc2Cl)[C@@H](O)C(=O)O)c(F)c1F [Example 3-6, (2R,3R)-3-{[5-Acetyl-2-(2,3,5,6-tetrafluoro-4-methoxy-benzyl)-2H-pyrazole-3-carbonyl]-amino}-4-(2-chloro-phenyl)-2-hydroxy-butyric acid]"
13,0.00126 to 0.01,"O=C(N[C@H](Cc1ccccc1Cl)[C@@H](O)C(=O)O)c1cc(-c2cc(Cl)ccc2Cl)n[nH]1 [Example 3-7, (2R,3R)-4-(2-Chloro-phenyl)-3-{[5-(2,5-dichloro-phenyl)-2H-pyrazole-3-carbonyl]-amino}-2-hydroxy-butyric acid]"
14,0.00126 to 0.01,"O=C(N[C@H](Cc1ccccc1Cl)[C@@H](O)C(=O)O)c1cc(-c2ccc(Cl)cc2Cl)n[nH]1 [Example 3-8, (2R,3R)-4-(2-Chloro-phenyl)-3-{[5-(2,4-dichloro-phenyl)-2H-pyrazole-3-carbonyl]-amino}-2-hydroxy-butyric acid]"
15,0.00126 to 0.01,"COc1ccc(Cn2cc(C(=O)N[C@H](Cc3ccccc3Cl)[C@@H](O)C(=O)O)cn2)c(F)c1F [Example 4-1, (2R,3R)-4-(2-Chloro-phenyl)-3-{[1-(2,3-difluoro-4-methoxy-benzyl)-1H-pyrazole-4-carbonyl]-amino}-2-hydroxy-butyric acid]"
16,0.00126 to 0.01,"COc1ccc(Cn2nc(C(=O)N[C@H](Cc3ccccc3C(F)(F)F)[C@@H](O)C(=O)O)cc2C(=O)O)cc1 [Example 5, 5-[(1R,2R)-2-Carboxy-2-hydroxy-1-(2-trifluoromethylbenzyl)-ethylcarbamoyl]-2-(4-methoxybenzyl)-2H-pyrazole-3-carboxylic Acid]"
17,0.00126 to 0.01,"O=C(N[C@H](Cc1ccccc1C(F)(F)F)[C@@H](O)C(=O)O)c1cc(C(=O)O)n(Cc2ccc(F)cc2)n1 [Example 6-1, 5-[(1R,2R)-2-Carboxy-2-hydroxy-1-(2-trifluoromethyl-benzyl)-ethylcarbamoyl]-2-(4-fluoro-benzyl)-2H-pyrazole-3-carboxylic acid]"
18,0.00126 to 0.01,"O=C(N[C@H](Cc1ccccc1C(F)(F)F)[C@@H](O)C(=O)O)c1cc(C(=O)O)[nH]n1 [Example 6-2, 5-[(1R,2R)-2-Carboxy-2-hydroxy-1-(2-trifluoromethyl-benzyl)-ethylcarbamoyl]-2H-pyrazole-3-carboxylic acid]"
19,0.0126 to 0.1,"CC(C)CN(C)C(=O)c1cc(C(=O)N[C@H](Cc2ccccc2C(F)(F)F)[C@@H](O)C(=O)O)n[nH]1 [Example 6-3, (2R,3R)-2-Hydroxy-3-{[5-(isobutyl-methyl-carbamoyl)-1H-pyrazole-3-carbonyl]-amino}-4-(2-trifluoromethyl-phenyl)-butyric acid]"
20,0.0126 to 0.1,"O=C(N[C@H](Cc1ccccc1C(F)(F)F)[C@@H](O)C(=O)O)c1cc(C(=O)NCCc2c[nH]cn2)[nH]n1 [Example 6-4, (2R,3R)-2-Hydroxy-3-({5-[2-(1H-imidazol-4-yl)-ethylcarbamoyl]-1H-pyrazole-3-carbonyl}-amino)-4-(2-trifluoromethyl-phenyl)-butyric acid]"
21,0.0126 to 0.1,"CNC(=O)c1cc(C(=O)N[C@H](Cc2ccccc2C(F)(F)F)[C@@H](O)C(=O)O)n[nH]1 [Example 6-5, (2R,3R)-2-Hydroxy-3-[(5-methylcarbamoyl-1H-pyrazole-3-carbonyl)-amino]-4-(2-trifluoromethyl-phenyl)-butyric acid]"
22,0.0126 to 0.1,"O=C(N[C@H](Cc1ccccc1C(F)(F)F)[C@@H](O)C(=O)O)c1cc(C(=O)NC2CC2)[nH]n1 [Example 6-6, (2R,3R)-3-[(5-Cyclopropylcarbamoyl-1H-pyrazole-3-carbonyl)-amino]-2-hydroxy-4-(2-trifluoromethyl-phenyl)-butyric acid]"
23,0.00126 to 0.01,"CN(C)C(=O)c1cc(C(=O)N[C@H](Cc2ccccc2C(F)(F)F)[C@@H](O)C(=O)O)n[nH]1 [Example 6-7, (2R,3R)-3-[(5-Dimethylcarbamoyl-1H-pyrazole-3-carbonyl)-amino]-2-hydroxy-4-(2-trifluoromethyl-phenyl)-butyric acid]"
24,0.0126 to 0.1,"O=C(N[C@H](Cc1ccccc1C(F)(F)F)[C@@H](O)C(=O)O)c1cc(C(=O)N2CCC(O)CC2)[nH]n1 [Example 6-8, (2R,3R)-2-Hydroxy-3-{[5-(4-hydroxy-piperidine-1-carbonyl)-1H-pyrazole-3-carbonyl]-amino}-4-(2-trifluoromethyl-phenyl)-butyric acid]"
25,0.00126 to 0.01,"O=C(N[C@H](Cc1ccccc1C(F)(F)F)[C@@H](O)C(=O)O)c1cc(C(=O)N2CC[C@@H](O)C2)[nH]n1 [Example 6-10, (2R,3R)-2-Hydroxy-3-{[5-((R)-3-hydroxy-pyrrolidine-1-carbonyl)-1H-pyrazole-3-carbonyl]-amino}-4-(2-trifluoromethyl-phenyl)-butyric acid]"
